Experimental data as given in PubChem BioAssay AID977624 (Broad Institute, 2014).
Records with an inconclusive call do not appear. Active and inactive are the calls of the source.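 Rule for the calls: active = compound lowering the normal-ribosome reporter at least twice as much as the humanized-ribosome reporter, growth loss under a set limit; inconclusive = no clear call, values can overlap the other calls; inactive = the rest.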

Legend:
Assay in all cases: growth inhibition of wild-type GFP E. coli, dose response, h34 mutant RFP, cherry-pick (AID 977624);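 note: wild-type GFP strain co-cultured with humanized h34 ribosome RFP strain in same well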
[1] = tested on: E. coli wild-type GFP strain growth, fluorescence, 24 h
[2] = tested on: E. coli h34 humanized ribosome mutant RFP strain growth, fluorescence, 24 h
[3] = tested on: E. coli mixed culture (wild-type GFP + h34 RFP) total growth, OD600, 24 h; conditions: E. coli mixed culture (wild-type GFP + h34 RFP), 24 h; measured here: total OD600 growth

| SMILES | AC50 [1] | AC50 [2] [µM] | AC50 [3] [µM] |
| --- | --- | --- | --- |
| CCc1cc2c(=O)n(Cc3ccccc3)c(SC3CCOC3=O)nc2s1 (stereo not given) | > 100 µM (inactive) | 46.4 |  |
| C=CCN(c1ccccc1)S(=O)(=O)c1cccc2cccnc12 |  | 4.71 |  |
| Cc1ccc(NS(=O)(=O)c2cc(C(=O)N3CCc4ccccc4C3)ccc2Cl)cc1 | > 100 µM (inactive) | 32.6 |  |
| CCC1=Nc2cc(C(=O)NCc3cccnc3)ccc2Sc2ccc(C)cc21 | > 100 µM (inactive) | 32.6 |  |
| CCCC(=O)Nc1sc2c(c1C(=O)Nc1ccccn1)CCCC2 |  | > 100 |  |
| Cc1ccccc1NS(=O)(=O)c1cc(C(=O)NCCC2=CCCCC2)ccc1C |  | > 100 |  |
| O=C(Nc1ccccc1N1CCOCC1)C1CCCCN1S(=O)(=O)c1ccccc1 (stereo not given) |  | > 100 |  |
| CC(C)Cn1c(=O)c2ccccc2c2ccccc2c1=O | > 100 µM (inactive) | 7.44 |  |
| COC(=O)c1cc(S(=O)(=O)NCc2ccc3c(c2)OCO3)cn1C |  | 52.4 |  |
| Cc1nnc2sc(SCC(=O)Nc3ccc(Br)cc3)nn2c1=O | > 100 µM (inactive) | > 100 |  |
| O=C(Nc1ccccc1Cl)c1ccc2c(c1)N(Cc1ccc(F)cc1)C(=O)CS2=O (stereo not given) | > 100 µM (inactive) | 50 |  |
| O=S(=O)(NCC1CCCO1)c1ccc(-c2ccc(Cl)cc2)cc1 (stereo not given) |  | 31.8 |  |
| O=C(Cc1c(Cl)cccc1Cl)Nc1cccc(S(=O)(=O)N2CCOCC2)c1 | > 100 µM (inactive) |  | 48.6 |
| Cc1cccc(N2CCN(Cc3nc(-c4ccc(F)cc4F)oc3C)CC2)n1 |  | 3.83 |  |
| CCCCNc1ccc2c(c1)OC[C@@H](Cc1ccccc1)NS2(=O)=O | > 100 µM (inactive) |  | 44.4 |
| CCn1c(NC(=O)c2nn(C)cc2Br)nc2ccccc21 | > 100 µM (inactive) | 45.6 | 50.3 |
| CCOc1ccc(OCCn2c(=S)[nH]c3c(N)ncnc32)cc1 | > 100 µM (inactive) | 17.3 |  |
| O=C(O)c1cc(-c2ccc(Cl)s2)nc2ccccc12 | > 100 µM (inactive) |  | > 100 |
| Cc1ccc(Cl)cc1N1CCN(C(=O)c2ccc3nc[nH]c3c2)CC1 | > 100 µM (inactive) |  | > 100 |
| COCC#Cc1ccc2c(c1)O[C@H](CN(C)C(=O)c1ccccc1)[C@@H](C)CN([C@H](C)CO)S2(=O)=O |  | > 100 |  |
| O=C(Nc1ccncc1)c1ccc(S(=O)(=O)Nc2ccccc2)cc1 |  | 46.5 |  |
| CC(=O)c1c(N2CCOCC2)nc2ccc(Cl)cc2c1-c1ccccc1 |  | > 100 |  |
| COc1ccccc1-c1nnc(C2CCN(S(=O)(=O)c3ccccc3[N+](=O)[O-])CC2)o1 | > 100 µM (inactive) |  | > 100 |
| CCOc1ccccc1N(CC(=O)Nc1ccccc1F)S(=O)(=O)c1ccccc1 | > 100 µM (inactive) | 52.1 |  |
| Clc1ccc2nc(CN3CCCc4ccccc43)cn2c1 | > 100 µM (inactive) |  | 36.1 |
| CC(=O)N1CCN(c2cc(N3CCCC3)c(F)cc2[N+](=O)[O-])CC1 | > 100 µM (inactive) |  | > 100 |
| O=C(Nc1ccc(F)cc1)N1CCCCN2[C@@H](CO)[C@H](c3ccc(-c4ccncc4)cc3)[C@@H]2C1 | > 100 µM (inactive) |  | > 100 |
